One data set deals with Male Swiss Webster mice. The experiment in a line: Tail-flick latency (antinociception) in mice. To be noted: for tail flick latency, fold above vehicle: clonidine 0.3 mg/ml. (In hot-plate and tail-flick tests a longer latency is read as antinociception.)
Another data set concerns rats. To be noted: for analgesic effect of the agent alone (tail flick latency) / AUC0→360 of tail flick latency / effect on morphine analgesia in rats treated with BMS182874 / effect on oxycodone analgesia in rats treated with BMS182874: BMS182874 50 μg icv; for analgesic effect of the agent alone (tail flick latency) / AUC0→360 of tail flick latency: clonidine 1 mg/kg ip; for effect on Morphine analgesia / effect on Oxycodone analgesia: clonidine 1 mg/kg ip or BMS182874 50 μg icv; for effect on Morphine analgesia: morphine 8 mg/kg sc; for effect on Oxycodone analgesia / AUC0→360 of tail flick latency / effect on oxycodone analgesia in rats treated with BMS182874 / effect of antagonist on Clonidine potentiation of Oxycodone analgesia: oxycodone 4 mg/kg sc; for AUC0→360 of tail flick latency: each agent alone: morphine 8 mg/kg sc, Mean±S.E.M., n=6; for effect on morphine analgesia in rats treated with BMS182874: morphine 4 mg/kg sc; for effect of antagonist on Clonidine potentiation of Morphine analgesia / effect of antagonist on Clonidine potentiation of Oxycodone analgesia: idazoxan 2 mg/kg ip or yohimbine 2 mg/kg ip given 15 min before clonidine 1 mg/kg ip.

The test system of data set [1] is patients after spinal fusion. To be noted: cited from earlier work.
The target of another data set is α2-adrenergic receptors. To be noted: cited from earlier work.
A further data set concerns the target I1-imidazoline receptors. The following applies: cited from earlier work.
A further data set concerns healthy volunteers. The following applies: clonidine 0.2 mg p.o., alone or with naloxone; cited from earlier work.
The subject of a further data set is goats. To be noted: epidural; cited from earlier work.
In data set [2] the test system is patients having coronary artery bypass graft surgery. The following applies: cited from earlier work.
For the next data set, the target named is μ-opioid receptors (Homo sapiens, UniProt P35372). The following applies: relative to morphine; cited from earlier work.
Sequence of μ-opioid receptors (P35372 whole entry): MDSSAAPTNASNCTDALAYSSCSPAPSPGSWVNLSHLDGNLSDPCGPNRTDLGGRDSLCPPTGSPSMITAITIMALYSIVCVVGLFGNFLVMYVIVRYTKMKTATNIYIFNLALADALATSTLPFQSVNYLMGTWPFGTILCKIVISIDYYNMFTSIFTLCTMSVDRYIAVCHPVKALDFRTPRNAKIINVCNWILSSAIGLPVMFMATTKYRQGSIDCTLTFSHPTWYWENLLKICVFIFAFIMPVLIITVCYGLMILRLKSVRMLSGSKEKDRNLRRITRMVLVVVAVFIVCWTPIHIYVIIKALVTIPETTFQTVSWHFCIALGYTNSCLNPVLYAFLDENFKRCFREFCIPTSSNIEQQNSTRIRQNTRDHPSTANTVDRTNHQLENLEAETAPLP

This is an account of results in patent US20100022574A1, “Methods to Treat Pain Using an Alpha-2 Adrenergic Agonist and an Endothelin Antagonist” (EndogenX, Inc., priority 2008, published 2010).

Entries after “also recorded” stand apart in the source; their conditions may differ. Counter-ions that a name gives are not always drawn. Like-named read-outs stand apart in the source and are kept apart here.

For the compound `Cc1noc(NS(=O)(=O)c2cccc3c(N(C)C)cccc23)c1C` [BMS182874, 5-(dimethylamino)-N-(3,4-dimethyl-5-isoxazolyl)-1-naphthalene sulfonamide], the “increase in tail flick latency” value with Male Swiss Webster mice (BMS182874 10 μg/kg icv + clonidine 0.3 mg/kg i.p., 1 and 2 hours post treatment, compared to vehicle of FIG. 5A) is 5 fold. For the same compound, in the data set with Male Swiss Webster mice (BMS182874 10 μg/kg icv + clonidine 0.3 mg/kg i.p., 4 hours post treatment), the “increase in tail flick latency” value is given as “approximately 3 fold”. Further, in the data set with Male Swiss Webster mice (BMS182874 10 μg/kg icv + clonidine 0.3 mg/kg i.p., by 6 hours post treatment), the “increase in tail flick latency” value is recorded as 2 fold. The “effect on clonidine analgesia” value with Male Swiss Webster mice (BMS182874 low and high dose (2.0 and 50.0 μg/kg, icv), clonidine 0.3 mg/kg i.p.) is “moderately potentiated”. In addition, the “effect on the analgesic effect of clonidine” value in the data set with Male Swiss Webster mice (BMS182874 middle dose 10 μg/kg icv, clonidine 0.3 mg/kg i.p.) is “potentiated”. For the same compound, the “effect on the fall in temperature induced by clonidine” value in “Body temperature in mice” (BMS182874 2.0, 10.0, 50.0 μg/kg icv, clonidine 0.3 mg/kg i.p.) was “did not affect”. In addition, the “effect on analgesic activity of clonidine” value in the data set on rats (rats, BMS182874 50 μg icv 15 min before clonidine 1.0 mg/kg ip) is recorded as “did not affect”. Also, in the data set on rats (rats), the “analgesic effect of the agent alone (tail flick latency)” value is “did not produce any analgesic effect”, the “effect on Morphine analgesia” value is “significantly potentiated; also recorded: Increase”, the “effect on Oxycodone analgesia” value is reported as “potentiated; also recorded: Increase” and the “AUC0→360 of tail flick latency” value worked out at 4.47±1.49 sec.min.
The term Ki denotes a measure of affinity in units of concentration, obtained from inhibition or displacement. With `Clc1cccc(Cl)c1NC1=NCCN1` [Clonidine, N-(2,6-dichlorophenyl)-4,5-dihydro-1H-imidazol-2-amine], the “AUC0→240 min from tail flick latency” value in the data set with Male Swiss Webster mice (Example 3, mice, morphine 4 mg/kg s.c., clonidine 2 mg/kg i.p. 30 min before morphine or vehicle, mean±SEM, N=6) is 68.4±12.3. For the same compound, the “AUC of tail flick latency compared to control mice” value in the data set with Male Swiss Webster mice (Example 5 study 2, clonidine 2 mg/kg i.p. alone, sulfisoxazole 1000 mg/kg oral alone) is recorded as “produced an increase in AUC”. Moreover, the “increase in tail flick latency” value in the data set with Male Swiss Webster mice (clonidine 0.3 mg/kg plus CMC, 2 hours post injury) worked out at 5 fold. The “tail flick latency at late time” value in the data set with Male Swiss Webster mice (clonidine 0.3 mg/kg plus CMC, by 6 hours) is “decreased to approximately the level of vehicle treated animals”. In addition, the “tail flick latency, fold above vehicle” value with Male Swiss Webster mice (at 3 hours) is “approximately 3 fold”; in the data set on Male Swiss Webster mice (by 5 hours), 2.5 fold; in the data set with Male Swiss Webster mice (immediately after injury) it was “up to 4 fold”. Also, the “tail flick latency, fold over vehicle” value in the data set with Male Swiss Webster mice (clonidine 1.0 mg/kg i.p., at approximately 6 hours) is 3 fold; in the data set with Male Swiss Webster mice (clonidine 1.0 mg/kg i.p., up to approximately 3 hours), “approximately 5 fold”; in the data set on Male Swiss Webster mice (clonidine 3.0 mg/kg i.p., all time points measured), “approximately 5 fold”. Moreover, in the data set on Male Swiss Webster mice (clonidine 2 mg/kg i.p. + morphine 4 mg/kg s.c., AUC), the “enhancement of the antinociception produced by morphine” value is on record as 42%. Besides, the “pain score (visual analog scale) after clonidine” value in [1] (clonidine 5 micrograms/kg i.v. in 1st h then 0.3 microgram/kg/h for 11 h, mean±standard error) is recorded as 26±3 mm. For the same compound, the “change in mean arterial pressure” value in data set [1] (clonidine group at T11) is on record as −26±2%. Further, the “pain score (visual analog scale) before clonidine” value in [1] (clonidine group, starting value, mean±standard error) is listed as 42±5 mm. Moreover, the mean arterial pressure in data set [1] (clonidine group) is recorded as 74±2 mmHg. Moreover, in [1] (clonidine group, i.m. morphine on demand), the “morphine requirement, dose for each patient” value was 3.8 ± 1 mg. In “Body temperature in mice” (clonidine 0.3, 1.0, 3.0 mg/kg i.p., all doses), the “effect on body temperature” value was “decreased body temperature”. The “effect on morphine analgesia in rats treated with BMS182874” value with rats (clonidine 0.1 mg/kg ip) is “did not produce an increase in analgesic effect”; in the data set on rats (clonidine 0.3 mg/kg ip), “significant (P=0.016 and P=0.011, respectively) increase”; in the data set with rats (clonidine 1.0 mg/kg ip), “significant (P=0.016 and P=0.011, respectively) increase”. The “effect on oxycodone analgesia in rats treated with BMS182874” value in the data set with rats (clonidine 0.1 mg/kg ip) was “did not produce an increase in analgesic effect”; with rats (clonidine 0.3 mg/kg ip), “significant (P=0.02 and P=0.031, respectively) increase”; with rats (clonidine 1.0 mg/kg ip), “significant (P=0.02 and P=0.031, respectively) increase”. In addition, the “analgesic effect of the agent alone (tail flick latency)” value with rats (rats) was “produced significant (P=0.00086) analgesia”. In the data set with rats (rats), the “effect on Morphine analgesia” value is given as “significantly potentiated; also recorded: Increase”. Moreover, the “effect on Oxycodone analgesia” value with rats (rats) was “potentiated; also recorded: Increase”. Further, the “AUC0→360 of tail flick latency” value in the data set on rats (rats) is recorded as 16.62±1.61 sec.min. Further, the Ki on α2-adrenergic receptors is 3.8 nM; on I1-imidazoline receptors, 1 nM. The “duration of increased subjective and objective pain thresholds” value in the data set on healthy volunteers is given as “at least 4 hours”. The duration of antinociception in the data set with goats is recorded as 5.5 h.
`c1ccc2c(c1)OCC(C1=NCCN1)O2` (centres unmarked) [Idazoxan, 2-(1,4-benzodioxan-2-yl)-2-imidazoline]: in the data set on rats (rats), the “effect of antagonist on Clonidine potentiation of Morphine analgesia” value is “did not affect; also recorded: No effect” and the “effect of antagonist on Clonidine potentiation of Oxycodone analgesia” value is “Blocked”. In addition, the Ki at α2-adrenergic receptors was 3.6 nM. Also, the Ki at I1-imidazoline receptors is 186 nM.
Take `CN1CC[C@]23c4c5ccc(O)c4O[C@H]2[C@@H](O)C=C[C@H]3[C@H]1C5.O=S(=O)(O)O` [Morphine, 7,8-didehydro-4,5α-epoxy-17-methylmorphinan-3,6α-diol sulfate]: the “morphine dosage in the first 24 h [median (25th-75th percentiles)]” value in data set [2] (i.v. morphine group (PCA alone, control)) is 37 (30.5-51) mg; in [2] (intrathecal morphine group (4 microg/kg plus i.v. PCA morphine)) it was 40.5 (15-61.5) mg. The time to extubation in [2] (i.v. morphine group) is listed as 330 (300-360) min.
On to `COc1ccc2c3c1O[C@H]1C(=O)CC[C@@]4(O)[C@@H](C2)N(C)CC[C@]314.Cl` [Oxycodone, 4,5α-epoxy-14-hydroxy-3-methoxy-17-methylmorphinan-6-one hydrochloride], for which the “affinity to the μ-opioid receptors, times less than morphine” value on μ-opioid receptors is listed as above 20 times. In addition, the “AUC0→360 of tail flick latency” value with rats (rats) amounted to 18.23±2.32 sec.min.
With `COC(=O)[C@@H]1[C@H]2C[C@H]3c4[nH]c5ccccc5c4CCN3C[C@@H]2CC[C@@H]1O` [Yohimbine, 17α-hydroxy-yohimban-16α-carboxylate hydrochloride], in the data set on rats (rats, hydrochloride), the “effect of antagonist on Clonidine potentiation of Morphine analgesia” value is listed as “Blocked” and the “effect of antagonist on Clonidine potentiation of Oxycodone analgesia” value was “Blocked”. Further, at α2-adrenergic receptors, the Ki is 22 nM. At I1-imidazoline receptors, the Ki was 21800 nM.
For the compound `N=C(N)NC(=O)Cc1c(Cl)cccc1Cl` [guanfacine], the duration of antinociception in the data set with goats was 8 h.
